Laboratory results as given in patent US11548860B2, “Pharmacophores, compounds and methods having application in the treatment of cancer through inhibition of CYP17A1 and CYP19A1” (MANGOSUTHU UNIVERSITY OF TECHNOLOGY, priority 2015, dated 2023).

How the values were obtained:
[1] = test system: CYP17A1; details: actual (literature) activity of training/test set compounds, cited from earlier work; for IC50: unit nM
[2] = molecular target: CYP17A1 (Homo sapiens (Human), UniProt P05093); test: CYP17A1 inhibition, CYP17A1 bactosomes, progesterone substrate, LC-MS/MS; assay type: biochemical; details: Table 2
Method: CYP17A1 inhibition was measured using 20 pmol/ml CYP17A1 bactosomes (Cypex, Dundee, UK) and 0.1 μM progesterone as a substrate and 1 mM NADPH in 50 mM potassium phosphate buffer pH 7.4 containing 5 mM magnesium chloride. Inhibitors were dissolved in DMSO and serially diluted in seven ½ log steps, final concentrations ranging from 50 μA to 50 nM. Reaction volume was 100 μl and final DMSO concentration was 1% (v/v). Reactions were started by the addition of NADPH and incubated at 37° C. for 20 minutes with shaking at 1800 rpm on a Bioshake IQ (Q-Instruments, Jena, Germany). Reactions were terminated by the addition of 200 μl methanol containing 1 μM tolbutamide as an internal standard.

[3] = test system: CYP1A2, CYP2C9, CYP2C19, CYP2D6, and CYP3A4; test: Summary of inhibition of metabolic CYP450 isoforms (5 CYP panel); assay type: in vitro ADME, human; details: Table 2
[4] = Toxicity studies on the molecules in Table 2
[5] = Solubility in DMSO; assay type: physicochemical
[6] = molecular target: CYP19A1 (Homo sapiens (Human), UniProt P11511); test: CYP19A1 inhibition, CYP19/MFC High Throughput Inhibitor Screen Kit, fluorescence; assay type: biochemical; details: Table 2
Method: Test compounds and control inhibitors were prepared as stocks in either Acetonitrile or DMSO from the solid compound. Compounds were serially diluted in ½ log steps in the same solvent. CYP19A1 inhibition experiments were performed using the CYP19/MFC High Throughput Inhibitor Screen Kit (Corning). Test compounds were tested in seven concentrations: […] CYP19A1 reactions were performed in black 96 well-plates (Greiner) according to the manufacturer's instructions. […] Final organic solvent concentrations were either 4% (v/v) acetonitrile or 0.5% (v/v) Dimethyl sulfoxide. The plates were covered with self-adhesive film lids and incubated for 10 minutes at 37° C. Reactions were terminated by the addition of 75 μl Stop Solution (100 mM Tris base in acetonitrile: MilliQ water (80:20). […] The CYP activities for each test compound/positive control inhibitor at each concentration were converted to % of control activity (CA). The LC-MS/MS peak responses (CYP metabolite peak area/internal standard peak area) for each test compound or positive control inhibitor were used and the response for each sample was expressed as a percentage of an uninhibited control (DMSO incubation).

[7] = test system: CYP17A1 and CYP19A1; test: Classification as Dual Inhibitor (inhibitor of both CYP17A1 and CYP19A1); details: inhibitors of both CYP17A1 and CYP19A1

Sequence of CYP19A1 (P11511 whole entry): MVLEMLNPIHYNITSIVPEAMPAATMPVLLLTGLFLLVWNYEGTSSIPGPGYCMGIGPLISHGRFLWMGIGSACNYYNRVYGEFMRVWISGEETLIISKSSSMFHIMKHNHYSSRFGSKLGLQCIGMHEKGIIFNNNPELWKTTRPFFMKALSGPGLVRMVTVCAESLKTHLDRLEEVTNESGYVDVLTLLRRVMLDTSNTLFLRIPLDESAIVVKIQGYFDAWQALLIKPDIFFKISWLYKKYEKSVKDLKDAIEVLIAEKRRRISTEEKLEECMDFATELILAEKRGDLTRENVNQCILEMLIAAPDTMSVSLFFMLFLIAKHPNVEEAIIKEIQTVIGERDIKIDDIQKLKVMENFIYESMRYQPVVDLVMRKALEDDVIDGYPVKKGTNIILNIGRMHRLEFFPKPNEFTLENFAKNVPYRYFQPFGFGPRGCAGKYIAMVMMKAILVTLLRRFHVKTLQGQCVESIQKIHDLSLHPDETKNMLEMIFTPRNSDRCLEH
Sequence of CYP17A1 (Homo sapiens (Human), UniProt P05093) (P05093 whole entry, canonical isoform): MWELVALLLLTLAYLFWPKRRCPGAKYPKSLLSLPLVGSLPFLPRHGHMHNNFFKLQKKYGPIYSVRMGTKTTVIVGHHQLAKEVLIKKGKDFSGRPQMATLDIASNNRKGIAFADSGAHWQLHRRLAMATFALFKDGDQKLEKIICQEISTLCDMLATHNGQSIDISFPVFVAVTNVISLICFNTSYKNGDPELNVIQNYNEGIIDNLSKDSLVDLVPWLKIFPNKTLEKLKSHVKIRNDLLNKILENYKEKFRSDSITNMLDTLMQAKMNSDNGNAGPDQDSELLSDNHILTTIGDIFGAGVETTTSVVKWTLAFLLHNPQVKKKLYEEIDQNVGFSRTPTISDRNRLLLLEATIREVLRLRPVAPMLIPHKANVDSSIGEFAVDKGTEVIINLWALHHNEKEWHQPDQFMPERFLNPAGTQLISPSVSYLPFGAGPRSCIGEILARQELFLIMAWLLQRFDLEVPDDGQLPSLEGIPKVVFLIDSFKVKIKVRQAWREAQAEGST

Structure (SMILES) | pIC50 [1] | IC50 [1] [nM] | further results
NC(=O)c1ccc2cc(C3(O)CCn4cncc43)ccc2c1 (racemic) [3b [11]] | 7.540 | 29 | 
CNC(=O)c1ccc2cc(C3CCn4cncc43)ccc2c1 (racemic) [3d [11]] | 7.890 | 13 | 
c1ccc(-c2ccc3c(c2)CCC3n2ccnc2)cc1 (racemic) [5ay [7]] | 6.620 | 240 | 
O=C(NC1CC1)c1ccc2cc(C3(O)CCn4cncc43)ccc2c1 (racemic) [5bx [7]] | 6.600 | 250 | 
CC(C)C(O)(c1ccc(-c2ccccc2)cc1)c1c[nH]cn1 (racemic) [7 [12]] | 7.480 | 33 | 
COc1ccc(-c2ccc(C(O)(c3c[nH]cn3)C(C)C)cc2)cc1 (racemic) [8 [12]] | 7.270 | 54 | 
CC(c1ccc(-c2ccsc2)cc1)n1ccnc1 (racemic) [12 [9]] | 6.050 | 876 | 
CC(C)C(O)(c1cccc(-c2ccc(F)cc2)c1)c1c[nH]cn1 (racemic) [13 [12]] | 7.720 | 19 | 
CC(C)C(O)(c1ccc(-c2ccc(F)cc2)cc1)c1c[nH]cn1 (racemic) [15 [12]] | 7.570 | 27 | 
COc1ccc(-c2ccc3c(c2)CCCC3(O)c2ccncc2)cc1F (racemic) [16 [9]] | 5.480 | 3340 | 
CC(C)C(O)(c1ccc(-c2ccc(Cl)cc2)cc1)c1c[nH]cn1 (racemic) [16 [12]] | 7.550 | 28 | 
CCNC(=O)c1ccc2cc(C3(O)CCn4cncc43)ccc2c1 (racemic) [25 [2]] | 6.730 | 186 | 
CC(=O)Nc1cccc(-c2ccc(C(C)(O)c3c[nH]cn3)cc2)c1 (racemic) [32 [12]] | 7.420 | 38 | 
CCC(O)(c1ccc(-c2cccc(NC(C)=O)c2)cc1)c1c[nH]cn1 (racemic) [33 [12]] | 7.400 | 40 | 
CC(=O)Nc1cccc(-c2ccc(C(O)(c3c[nH]cn3)C3CC3)cc2)c1 (racemic) [34 [12]] | 7.350 | 45 | 
CNC(=O)c1ccc2cc(C(O)(c3cnc[nH]3)C(C)C)ccc2c1 (centres unmarked) [1 [11]] | 7.800 | 16 | 
Brc1ccc(Cc2ccncc2)cc1 [3g [11]] | 6.400 | 400 | 
Oc1cccc(-c2ccc(Cc3ccncc3)cc2)c1 [3i [11]] | 7.060 | 88 | 
CC(c1ccc(-c2ccc(F)cc2)cc1)n1ccnc1 (centres unmarked) [4 [9], 4-fluoro-4-[1-(1H-imidazolyl)ethyl]biphenyl] | 6.610 | 248 | 
Oc1ccc(-c2ccc(Cc3ccncc3)cc2)cc1F [5ax [7]] | 6.770 | 170 | 
Oc1ccc(-c2ccc(Cc3ccncc3)cc2)cc1O [9 [9]] | 7.280 | 52 | 
COc1ccc(-c2ccc(Cc3ccncc3)cc2)cc1OC [9a [9]] | 7.280 | 52 | 
CC(C)=C(c1ccncc1)c1ccc(-c2cccc(O)c2)cc1 [13 [2]] | 7.250 | 56 | 

Structure (SMILES) | pIC50 [1] | IC50 [1] [nM] | further results
COc1ccc2cc(-c3ccc(Cc4ccncc4)cc3)ccc2c1 [13 [9]] | 5.750 | 1790 | 
CC(C)C(O)(c1cccc(-c2ccc(Cl)cc2)c1)c1c[nH]cn1 (centres unmarked) [14 [12]] | 7.310 | 49 | 
CC(C)=C(c1ccncc1)c1ccc(-c2ccc(O)c(F)c2)cc1 [15 [2]] | 7.120 | 75 | 
Cl.Fc1ccc(-c2ccc3c(c2)CCC3c2cccnc2)cc1 (centres unmarked) [15 [13]] | 4.700 | 20000 | 
CC(C)=C(c1ccncc1)c1ccc(-c2ccc(O)c(O)c2)cc1 [16 [2]] | 7.430 | 37 | 
CC(=O)Nc1cccc(-c2ccc(C(O)(c3c[nH]cn3)C(C)C)cc2)c1 (centres unmarked) [17 [12]] | 7.620 | 24 | 
Br.Oc1ccc(-c2ccc3c(c2)CCCC3c2ccncc2)cc1F (centres unmarked) [20 [13]] | 7.190 | 64 | 
CC(C)=C(c1ccncc1)c1ccc(-c2ccc(N)c(N)c2)cc1 [22 [2]] | 7.120 | 75 | 
CNC(=O)c1cccc(-c2ccc(C(O)(c3c[nH]cn3)C(C)C)cc2)c1 (centres unmarked) [22 [12]] | 7.360 | 44 | 
CNC(=O)Nc1cccc(-c2ccc(C(O)(c3c[nH]cn3)C(C)C)cc2)c1 (centres unmarked) [24 [12]] | 7.680 | 21 | 
CC(=O)Nc1cccc(-c2ccc(C(O)(c3c[nH]cn3)C(C)C)cc2)n1 (centres unmarked) [26 [12]] | 7.440 | 36 | 
Oc1ccc(-c2ccc(Cc3ccncc3)cc2)cc1 [30 [10]] | 6.630 | 236 | 
CCc1ccc(NC(=O)c2cc(C(=O)c3cc(OC)ccc3O)coc2=N)cc1 [Compound 1, N-(4-ethylphenyl)-5-(2-hydroxy-5-methoxybenzoyl)-2-imino-2H-pyran-3-carboxamide] |  |  | inhibitory potency of CYP17A1, level in words [2]: micromolar levels; inhibition of various CYP450 isoforms (drug-drug interaction) [3]: inhibit various CYP450 isoforms; safety profile [4]: reasonably good safety profiles; Soluble in DMSO [5]: Yes
O=C(CSc1nnc(-c2c[nH]c3ccccc23)n1Cc1ccco1)NCc1ccccc1Cl [Compound 2, N-[(2-chlorophenyl)methyl]-2-({4-[(furan-2-yl)methyl]-5-(1H-indol-3-yl)-4H-1,2,4-triazol-3-yl}sulfanyl)acetamide] |  |  | inhibitory potency of CYP17A1, level in words [2]: micromolar levels; inhibition of various CYP450 isoforms (drug-drug interaction) [3]: inhibit various CYP450 isoforms; safety profile [4]: reasonably good safety profiles; Soluble in DMSO [5]: Yes
COC(C)C(=O)Nc1cccc(NC(C(N)=O)c2ccccc2)c1 (centres unmarked) [Compound 5, N-(3-{[carbamoyl(phenyl)methyl]amino}phenyl)-2-methoxypropanamide] |  |  | safety profile [4]: excellent safety profiles; Soluble in DMSO [5]: Yes
O=C1COc2cc(NCc3cccc(NC(=O)c4ccccc4Cl)c3)c(Cl)cc2N1 [Compound 7, 2-chloro-N-(3-{[(6-chloro-3-oxo-3,4-dihydro-2H-1,4-benzoxazin-7-yl)amino]methyl}phenyl)benzamide] |  |  | IC50 values against CYP19A1, potency level in words [6]: sub-micromolar inhibitory potency levels; Dual Inhibitor classification [7]: Dual Inhibitors; inhibitory potency of CYP17A1, level in words [2]: micromolar levels; safety profile [4]: excellent safety profiles; Soluble in DMSO [5]: Yes
O=C1COc2cc(NCc3cccc(C(=O)Nc4cccnc4)c3)c(O)cc2N1 [Compound 8, 3-{[(6-hydroxy-3-oxo-3,4-dihydro-2H-1,4-benzoxazin-7-yl)amino]methyl}-N-(pyridin-3-yl)benzamide] |  |  | IC50 values against CYP19A1, potency level in words [6]: sub-micromolar inhibitory potency levels; safety profile [4]: excellent safety profiles; Soluble in DMSO [5]: Yes
O=C(Nc1ccccc1O)c1ccc(Oc2cccc(C(=O)Nc3ccccc3O)c2)cc1 [Compound 9, N-(2-hydroxyphenyl)-4-{3-[(2-hydroxyphenyl)carbamoyl]phenoxyl}benzamide] |  |  | inhibitory potency of CYP17A1, level in words [2]: micromolar levels; safety profile [4]: excellent safety profiles; Soluble in DMSO [5]: Yes
O=C1COc2cc(NCc3cccc(C(=O)Nc4cccnc4)c3)ccc2N1 [Compound 10, 3-{[(3-oxo-3,4-dihydro-2H-1,4-benzoxazin-7-yl)amino]methyl}-N-(pyridin-3-yl)benzamide] |  |  | IC50 values against CYP19A1, potency level in words [6]: sub-micromolar inhibitory potency levels; Dual Inhibitor classification [7]: Dual Inhibitors; inhibitory potency of CYP17A1, level in words [2]: micromolar levels; safety profile [4]: excellent safety profiles; Soluble in DMSO [5]: Yes
O=C1COc2cc(NCc3cccc(C(=O)Nc4ccccc4O)c3)ccc2N1 [Compound 11, N-(2-hydroxyphenyl)-3-{[(3-oxo-3,4-dihydro-2H-1,4-benzoxazin-7-yl)amino]methyl}benzamide] |  |  | IC50 values against CYP19A1, potency level in words [6]: sub-micromolar inhibitory potency levels; inhibition of various CYP450 isoforms (drug-drug interaction) [3]: inhibit various CYP450 isoforms; safety profile [4]: reasonably good safety profiles; Soluble in DMSO [5]: Yes
O=C1COc2cc(NCc3cccc(C(=O)Nc4cccnc4)c3)c(Cl)cc2N1 [Compound 13, 3-{[(6-chloro-3-oxo-3,4-dihydro-2H-1,4-benzoxazin-7-yl)amino]methyl}-N-(pyridin-3-yl)benzamide] |  |  | IC50 values against CYP19A1, potency level in words [6]: sub-micromolar inhibitory potency levels; Dual Inhibitor classification [7]: Dual Inhibitors; inhibition of various CYP450 isoforms (drug-drug interaction) [3]: inhibit various CYP450 isoforms; safety profile [4]: reasonably good safety profiles; Soluble in DMSO [5]: Yes
CNC(=O)c1ccc2cc([C@@]3(O)CCn4cncc43)ccc2c1 [TAK700] | 7.550 | 28 | 
